Assay results taken from ChEMBL document CHEMBL3272133, “1-[4-(4-Chlorophenyl)-2-(2,6-dichlorophenylthio)-n-butyl]-1H-imidazole nitrate, a new potent antifungal agent” (J Med Chem, 1978).
The source made the active and inactive calls. The rule behind the calls is not given here.

Experiments:
Candida albicans [1] = test: Antifungal activity against Candida albicans infected in mouse assessed as noninfected animals at 100000 U/g administered vaginally bid for 4 days measured 6 hrs post last dose relative to placebo; type: functional, organism-based
Candida albicans [2] = test: Antifungal activity against Candida albicans infected in mouse assessed as noninfected animals at 100000 U/g administered vaginally bid for 4 days measured on day 7 relative to placebo; type: functional, organism-based
Candida albicans [3] = test: Antifungal activity against Candida albicans infected in mouse assessed as noninfected animals at 2% formulation in neat PEG 400 solution administered vaginally bid for 4 days measured on day 7 relative to placebo; type: functional
Saccharomyces cerevisiae [4] = test: Mutagenic activity in Saccharomyces cerevisiae D4 at 0.1 ug/plate by Ames assay in presence of rat liver microsomal enzyme preparation; type: toxicity, organism-based; conditions: microsomes
Salmonella typhimurium [5] = test: Mutagenic activity in Salmonella typhimurium TA-98 at 0.1 to 100 ug/plate by Ames assay in presence of rat liver microsomal enzyme preparation; type: toxicity, organism-based; conditions: salmonella enterica subsp. enterica serovar typhimurium, microsomes
Candida albicans [6] = test: Antifungal activity against mixed infection of Candida albicans infected in mouse assessed as noninfected animals at 0.1% formulation administered vaginally bid for 4 days measured 6 hrs post last dose relative to placebo; type: functional
Salmonella typhimurium [7] = test: Mutagenic activity in Salmonella typhimurium TA-1535 at 0.1 to 100 ug/plate by Ames assay; type: toxicity, organism-based; conditions: salmonella enterica subsp. enterica serovar typhimurium
[8] = system: Trichophyton mentagrophytes; test: Antifungal activity against Trichophyton mentagrophytes infected in guinea pig assessed as noninfected animals at 0.5% formulation in steryl alcohol, cetyl alcohol, Span 60, Tween 60, propylene glycol, mineral oil, and water administered qd for 5 days measured on day 4; type: functional
Salmonella typhimurium [9] = test: Mutagenic activity in Salmonella typhimurium TA-100 at 0.1 to 100 ug/plate by Ames assay in presence of rat liver microsomal enzyme preparation; type: toxicity, organism-based; conditions: salmonella enterica subsp. enterica serovar typhimurium, microsomes
[10] = Acute toxicity in po dosed male rat; type: organism-based; conditions: in vivo
Candida albicans [11] = test: Antifungal activity against Candida albicans infected in mouse assessed as noninfected animals at 0.5% formulation in neat PEG 400 solution administered vaginally bid for 4 days measured on day 7 relative to placebo; type: functional
[12] = Acute toxicity in po dosed female rat; type: organism-based; conditions: in vivo
Saccharomyces cerevisiae [13] = test: Toxicity in Saccharomyces cerevisiae D4 at 500 ug/plate; type: organism-based; conditions: in vivo
Candida albicans [14] = test: Antifungal activity against mixed infection of Candida albicans infected in mouse assessed as noninfected animals at 1% formulation administered vaginally bid for 4 days measured on day 7 relative to placebo; type: functional
Enterococcus faecalis = test: Antibacterial activity against Streptococcus faecalis No. 8043-2 assessed as growth inhibition by broth microdilution method; type: functional
Staphylococcus aureus [15] = test: Antibacterial activity against Staphylococcus aureus No. 14154 assessed as growth inhibition by broth microdilution method; type: functional
[16] = Acute toxicity in ip dosed rat; type: organism-based; conditions: in vivo
Candida albicans [17] = test: Antifungal activity against mixed infection of Candida albicans infected in mouse assessed as noninfected animals at 0.1% formulation administered vaginally bid for 4 days measured on day 7 relative to placebo; type: functional
Candida albicans [18] = test: Antifungal activity against mixed infection of Candida albicans infected in mouse assessed as noninfected animals at 1% formulation in modified PEG 400 solution administered vaginally bid for 4 days measured on day 7 relative to placebo; type: functional
Salmonella typhimurium [19] = test: Mutagenic activity in Salmonella typhimurium TA-1538 at 0.1 to 100 ug/plate by Ames assay; type: toxicity, organism-based; conditions: salmonella enterica subsp. enterica serovar typhimurium
Candida albicans [20] = test: Antifungal activity against Candida albicans infected in mouse assessed as noninfected animals at 0.25% formulation in neat PEG 400 solution administered vaginally bid for 4 days measured on day 7 relative to placebo; type: functional
[21] = Antifungal activity against Trichophyton concentricum assessed as growth inhibition by agar dilution method; type: functional
Candida albicans [22] = test: Antifungal activity against mixed infection of Candida albicans infected in mouse assessed as noninfected animals at 0.5% formulation administered vaginally bid for 4 days measured on day 7 relative to placebo; type: functional
Cryptococcus neoformans = test: Antifungal activity against Cryptococcus neoformans assessed as growth inhibition by broth dilution method; type: functional
Candida albicans [23] = test: Antifungal activity against Candida albicans infected in mouse assessed as noninfected animals at 0.25 to 4% formulation in neat PEG 400 solution administered vaginally bid for 4 days measured on day 21; type: functional, organism-based
[24] = system: Trichophyton mentagrophytes; test: Antifungal activity against Trichophyton mentagrophytes infected in guinea pig assessed as noninfected animals at 0.5% formulation in steryl alcohol, cetyl alcohol, Span 60, Tween 60, propylene glycol, mineral oil, and water administered qd for 5 days measured on day 14; type: functional
Salmonella typhimurium [25] = test: Mutagenic activity in Salmonella typhimurium TA-98 at 0.1 to 100 ug/plate by Ames assay; type: toxicity, organism-based; conditions: salmonella enterica subsp. enterica serovar typhimurium
Streptococcus pyogenes = test: Antibacterial activity against Streptococcus pyogenes No. 8668 assessed as growth inhibition by broth microdilution method; type: functional
Salmonella typhimurium [26] = test: Toxicity in Salmonella typhimurium TA-100 at 500 ug/plate; type: organism-based; conditions: salmonella enterica subsp. enterica serovar typhimurium
Candida albicans [27] = test: Antifungal activity against mixed infection of Candida albicans infected in mouse assessed as noninfected animals at 0.5% formulation administered vaginally bid for 4 days measured 6 hrs post last dose relative to placebo; type: functional
Salmonella typhimurium [28] = test: Mutagenic activity in Salmonella typhimurium TA-1537 at 0.1 to 100 ug/plate by Ames assay in presence of rat liver microsomal enzyme preparation; type: toxicity, organism-based; conditions: salmonella enterica subsp. enterica serovar typhimurium, microsomes
Salmonella typhimurium [29] = test: Mutagenic activity in Salmonella typhimurium TA-100 at 0.1 to 100 ug/plate by Ames assay; type: toxicity, organism-based; conditions: salmonella enterica subsp. enterica serovar typhimurium
Candida albicans [30] = test: Antifungal activity against mixed infection of Candida albicans infected in mouse assessed as noninfected animals at 1% formulation administered vaginally bid for 4 days measured 6 hrs post last dose relative to placebo; type: functional
Candida albicans [31] = test: Antifungal activity against Candida albicans infected in mouse assessed as noninfected animals at 2% formulation in neat PEG 400 solution administered vaginally bid for 4 days measured 6 hrs post last dose relative to placebo; type: functional
Candida albicans [32] = test: Antifungal activity against Candida albicans infected in mouse assessed as noninfected animals at 1% formulation in neat PEG 400 solution administered vaginally bid for 4 days measured on day 7 relative to placebo; type: functional
Salmonella typhimurium [33] = test: Toxicity in Salmonella typhimurium TA-98 at 500 ug/plate; type: organism-based; conditions: salmonella enterica subsp. enterica serovar typhimurium
Candida albicans [34] = test: Antifungal activity against mixed infection of Candida albicans infected in mouse assessed as noninfected animals at 0.2% formulation administered vaginally bid for 4 days measured on day 7 relative to placebo; type: functional
[35] = system: Trichophyton mentagrophytes; test: Antifungal activity against Trichophyton mentagrophytes assessed as growth inhibition by agar dilution method; type: functional
Staphylococcus aureus [36] = test: Antibacterial activity against Staphylococcus aureus No. 6538 P assessed as growth inhibition by broth microdilution method; type: functional
Salmonella typhimurium [37] = test: Mutagenic activity in Salmonella typhimurium TA-1537 at 0.1 to 100 ug/plate by Ames assay; type: toxicity, organism-based; conditions: salmonella enterica subsp. enterica serovar typhimurium
Candida albicans [38] = test: Antifungal activity against Candida albicans ATCC 10231 assessed as growth inhibition by broth dilution method; type: functional
Candida albicans [39] = test: Antifungal activity against mixed infection of Candida albicans infected in mouse assessed as noninfected animals at 0.2% formulation administered vaginally bid for 4 days measured 6 hrs post last dose relative to placebo; type: functional
Nannizzia gypsea = test: Antifungal activity against Microsporum gypseum assessed as growth inhibition by agar dilution method; type: functional
Candida albicans [40] = test: Antifungal activity against Candida albicans ATCC 14053 assessed as growth inhibition by broth dilution method; type: functional
Salmonella typhimurium [41] = test: Toxicity in Salmonella typhimurium TA-1538 at 500 ug/plate; type: organism-based; conditions: salmonella enterica subsp. enterica serovar typhimurium
Candida albicans [42] = test: Antifungal activity against Candida albicans infected in mouse assessed as noninfected animals at 1% formulation in neat PEG 400 solution administered vaginally bid for 4 days measured 6 hrs post last dose relative to placebo; type: functional
[43] = Acute toxicity in po dosed mouse; type: organism-based; conditions: in vivo
[44] = system: Trichophyton mentagrophytes; test: Antifungal activity against Trichophyton mentagrophytes infected in guinea pig assessed as noninfected animals at 0.5% formulation in steryl alcohol, cetyl alcohol, Span 60, Tween 60, propylene glycol, mineral oil, and water administered qd for 5 days measured on day 7; type: functional
Salmonella typhimurium [45] = test: Toxicity in Salmonella typhimurium TA-1535 at 500 ug/plate; type: organism-based; conditions: salmonella enterica subsp. enterica serovar typhimurium
Epidermophyton floccosum = test: Antifungal activity against Epidermophyton floccosum assessed as growth inhibition by agar dilution method; type: functional
[46] = Acute toxicity in ip dosed mouse; type: organism-based; conditions: in vivo
Salmonella typhimurium [47] = test: Mutagenic activity in Salmonella typhimurium TA-1535 at 0.1 to 100 ug/plate by Ames assay in presence of rat liver microsomal enzyme preparation; type: toxicity, organism-based; conditions: salmonella enterica subsp. enterica serovar typhimurium, microsomes
Trichophyton rubrum = test: Antifungal activity against Trichophyton rubrum assessed as growth inhibition by agar dilution method; type: functional
Candida albicans [48] = test: Antifungal activity against Candida albicans infected in mouse assessed as noninfected animals at 0.5% formulation in neat PEG 400 solution administered vaginally bid for 4 days measured 6 hrs post last dose relative to placebo; type: functional
Trichophyton tonsurans = test: Antifungal activity against Trichophyton tonsurans assessed as growth inhibition by agar dilution method; type: functional
Salmonella typhimurium [49] = test: Toxicity in Salmonella typhimurium TA-1537 at 500 ug/plate; type: organism-based; conditions: salmonella enterica subsp. enterica serovar typhimurium
Microsporum canis = test: Antifungal activity against Microsporum canis assessed as growth inhibition by agar dilution method; type: functional
Saccharomyces cerevisiae [50] = test: Mutagenic activity in Saccharomyces cerevisiae D4 at 0.1 ug/plate by Ames assay; type: organism-based
Salmonella typhimurium [51] = test: Mutagenic activity in Salmonella typhimurium TA-1538 at 0.1 to 100 ug/plate by Ames assay in presence of rat liver microsomal enzyme preparation; type: toxicity, organism-based; conditions: salmonella enterica subsp. enterica serovar typhimurium, microsomes
Candida albicans [52] = test: Antifungal activity against Candida albicans infected in mouse assessed as noninfected animals at 0.25% formulation in neat PEG 400 solution administered vaginally bid for 4 days measured 6 hrs post last dose relative to placebo; type: functional

NYSTATIN
Activity (Candida albicans [1]): 10% | Activity (Candida albicans [2]): 0%

Clc1ccc(CCC(Cn2ccnc2)Sc2c(Cl)cccc2Cl)cc1.O=[N+]([O-])O (stereo not given) [BUTOCONAZOLE NITRATE]
Activity (Candida albicans [3]): 85% | Activity (Saccharomyces cerevisiae [4]): Non-toxic | Activity (Salmonella typhimurium [5]): Non-toxic | Activity (Candida albicans [6]): 35% | Activity (Salmonella typhimurium [7]): Non-toxic | Activity [8]: 60% | Activity (Salmonella typhimurium [9]): Non-toxic | LD50 [10]: > 3200 mg/kg | Activity (Candida albicans [11]): 75% | LD50 [12]: 1720 mg/kg | Activity (Saccharomyces cerevisiae [13]): Toxic | Activity (Candida albicans [14]): 83% | GI (Enterococcus faecalis): 3.12 µg/mL | GI (Staphylococcus aureus [15]): 12.5 µg/mL | LD50 [16]: 940 mg/kg | Activity (Candida albicans [17]): 40% | Activity (Candida albicans [18]): 55% | Activity (Salmonella typhimurium [19]): Non-toxic | Activity (Candida albicans [20]): 75% | GI [21]: 0.05 µg/mL | Activity (Candida albicans [22]): 60% | GI (Cryptococcus neoformans): <=1 ug ml-1 | Activity (Candida albicans [23]): Active | Activity [24]: 40% | Activity (Salmonella typhimurium [25]): Non-toxic | GI (Streptococcus pyogenes): 0.0016 µg/mL | Activity (Salmonella typhimurium [26]): Toxic | Activity (Candida albicans [27]): 65% | Activity (Salmonella typhimurium [28]): Non-toxic | Activity (Salmonella typhimurium [29]): Non-toxic | Activity (Candida albicans [30]): 84% | Activity (Candida albicans [31]): 85% | Activity (Candida albicans [32]): 95% | Activity (Salmonella typhimurium [33]): Toxic | Activity (Candida albicans [34]): 63% | GI [35]: 1 µg/mL | GI (Staphylococcus aureus [36]): 6.25 µg/mL | Activity (Salmonella typhimurium [37]): Non-toxic | GI (Candida albicans [38]): 30 µg/mL | Activity (Candida albicans [39]): 60% | GI (Nannizzia gypsea): 0.05 µg/mL | GI (Candida albicans [40]): 10 µg/mL | Activity (Salmonella typhimurium [41]): Toxic | Activity (Candida albicans [42]): 90% | LD50 [43]: > 3200 mg/kg | Activity [44]: 90% | Activity (Salmonella typhimurium [45]): Toxic | GI (Epidermophyton floccosum): 5 µg/mL | LD50 [46]: > 1600 mg/kg | Activity (Salmonella typhimurium [47]): Non-toxic | GI (Trichophyton rubrum): 0.05 µg/mL | Activity (Candida albicans [48]): 80% | GI (Trichophyton tonsurans): 5 µg/mL | Activity (Salmonella typhimurium [49]): Toxic | GI (Microsporum canis): 0.1 µg/mL | Activity (Saccharomyces cerevisiae [50]): Non-toxic | Activity (Salmonella typhimurium [51]): Non-toxic | Activity (Candida albicans [52]): 75%
